Measurements reported in publication PMC6895199, “A new antiviral scaffold for human norovirus identified with computer-aided approaches on the viral polymerase” (Scientific Reports, 2019).
Values joined by “and” are separate entries in the source; they are usually repeats but may differ in a detail not shown here. Identical values can stand only once. Like-named read-outs stand apart in the source and are kept apart here.

What was measured:
HuNoV (GII.4) RdRp [1] = assay: Counter-screen gel-shift assay of primed elongation activity (PE44-NoV template); assay type: biochemical, human norovirus; conditions: fixed concentration of 100 μM
Description: To further confirm RdRp inhibition and exclude any potential false positives from the first fluorescence RdRp assay, the eight molecules were then assessed using a gel-shift enzyme activity assay at a fixed concentration of 100 μM, following a procedure previously adopted by our research group.
Figure 5 A counter-screen gel-shift assay was used to confirm HuNoV (GII.4) RdRp inhibitory activity of compounds 2, 3, 34 and 35 (A), 4, 5, 6 (B) and 7 (C). The eight compounds were examined for inhibition of primed elongation activity. PE44-NoV RNA templates (32 nucleotides) were extended (44 nucleotides) by the RdRp in the absence of any test compounds (0.5% DMSO [vol/vol] negative control) or with test compounds at a fixed concentration of 100 μM. […] Full-length gels are presented in Supplementary Fig. S3.
Fluorescent RdRp activity assays were carried out as previously described[12],[29]. Briefly, RdRp activity was quantified by monitoring the formation of double-stranded RNA (dsRNA) from a single stranded homopolymeric template, poly(C) (Sigma Aldrich), using the fluorescent dye PicoGreen (Life Technologies, Carlsbad, CA, USA). RdRp assays were performed in 384-well plates, and each reaction mixture contained 400 ng enzyme, 45 μM GTP, 10 ng/μL poly(C) RNA, 2.5 mM MnCl2, 5 mM dithiothreitol, (DTT), 0.01% bovine serum albumin (BSA), and 0.005% Tween 20 in 20 mM Tris-HCl, pH 7.5, with a final reaction volume of 25 μL. The PPNDS and compound 1 were used as a positive controls. RdRps were incubated for 10 mins at 30 °C in the presence of the test compounds or the compound vehicle DMSO (0.5% vol/vol) before addition into the reaction mixture, which was then allowed to run 15 min at 30 °C then terminated with 10 mM EDTA, followed by PicoGreen staining and dsRNA quantitation. GraphPad Prism V6.05 (La Jolla, CA, USA) was used to plot the IC50 values. A secondary gel-based polymerase activity assay was used as a counter-screen as described below, to exclude the possibility of RdRp activity enhancement. Primed elongation activity was examined in a gel-based assay as previously described[12],[29] using the RNA template (PE44-NoV). Gels were imaged using BioRad (Hercules, CA, U.SA) Geldoc Universal Hood II, running BioRad Image Lab software, V4.1, build 16.

[2] = similar MNV cell-based assay; cited from earlier work
HuNoV (GII.4) RdRp [3] = target: HuNoV (GII.4) RdRp (Norovirus Hu/GII.4/Sydney/NSW0514/2012/AU, UniProt K4L8Z7); assay: Quantitative fluorescent RdRp activity assay (PicoGreen, poly(C) template); assay type: biochemical, human norovirus Sydney 2012
How it was run: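 Enzyme (400 ng) preincubated with compound 10 min at 30 °C, then reacted 15 min at 30 °C with 45 μM GTP, 10 ng/μL poly(C), 2.5 mM MnCl2, pH 7.5. Stopped with EDTA; dsRNA quantified by PicoGreen. Six concentrations (0.1–100 µM) gave IC50, or single 20 µM screen vs 0.5% DMSO.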

MNV = MNV CPE reduction assay (MTS) in RAW 264.7 cells; assay type: cell-based, mouse norovirus (MNV-1.CW1); conditions: Norovirus, RAW264.7, in Mus musculus
Description: The newly prepared compounds 2–7 and 34–35 were evaluated for their antiviral effect against the genogroup V mouse norovirus (MNV) using the mouse macrophage cell line RAW264.7. This assay evaluates the ability of the compounds to protect infected cells from the virus-induced cytopathic effect, thus being suitable to identify inhibition of virus replication at every step of the virus life cycle, and representing a robust cellular assay available for the rapid evaluation of potential norovirus inhibitors. Compounds identified using MNV have shown effects against HuNoV in vitro and in vivo, as in the case of nucleoside RdRp inhibitor 2′-C-methylcytidine (2CMC)[34]–[36]. Unfortunately, despite not presenting the aqueous solubility issues we had previously encountered for 1[29], no significant antiviral effect could be observed in this assay for the new compounds up to the maximum concentration tested. The new structural modifications, despite retaining inhibition of the RdRp in an isolated enzyme activity assay and showing no cytotoxic effects at the test concentrations in the MNV antiviral assay (Supplementary Table S1), are correlated with a lack of antiviral activity. As these new structures present the same limitation of most non-nucleoside HuNoV polymerase inhibitors reported so far[22], we were prompted to apply a different computer-aided strategy to further modify the scaffold of 1, with the aim to achieve an antiviral effect in cellular systems. […]
Since the main scope of this work was to find new norovirus inhibitors which show antiviral effects against both the HuNoV RdRp and in norovirus-infected cells, priority was given to the evaluation of most of the new molecules for their antiviral activity against MNV in infected RAW cells. The nucleoside 2′-C-methylcytidine was used as positive control. The test compounds were evaluated at eight different concentrations (range 0.6–100 µM) and their ability to reduce the virus-induced cytopathic effect was assessed.
(§1) Cells and virus: MNV (virus strain MNV-1.CW1) was propagated in RAW 264.7 cells grown in DMEM (Life Technologies, Gent, Belgium) supplemented with 10% or 2% FBS, 2 mM L-glutamine, 20 mM HEPES, 0.075 g/L sodium bicarbonate, 1 mM sodium pyruvate, 100 U penicillin/mL and 100 µg/mL streptomycin at 37 °C in a humidified atmosphere of 5% CO2. The human norovirus GI.1 replicon harboring gastric tumor-1 cell line (HGT-NV) (kindly provided by Dr. Ian Goodfellow, University of Cambridge) was maintained in DMEM supplemented with 10% FBS, 2mM L-glutamine, 0.075 g/L sodium bicarbonate and 1.0 mg/ml of Geneticin (G418; Life Technologies), at 37 °C in a humidified atmosphere of 5% CO2[34].
Antiviral assay with MNV: The antiviral activity of the Compounds was determined using an MTS [3-(4,5-dimethylthiazol-2-yl)-5-(3-carboxymethoxyphenyl)-2-(4-sulfophenyl)-2H-tetrazolium]-based cytopathic effect (CPE) reduction assay. […] Then, a MTS-phenazinemethosulfate (MTS/PMS) stock solution [(2 mg/mL MTS (Promega, Leiden, The Netherlands) and 46 µg/mL PMS (Sigma–Aldrich, Bornem, Belgium) in PBS at pH 6–6.5)] was diluted 1/20 in MEM (Life Technologies, Gent, Belgium) and 75 µL were added to each well. After 2 h, the optical density (OD) was read at 498 nm. The %CPE reduction was calculated as [(ODtreated)MNV − ODVC]/[ODCC − ODVC] × 100, where ODCC represents the OD of the uninfected untreated cells, whereas ODVC and (ODtreated)MNV represent the OD of infected untreated cells and virus-infected cells treated with a compound concentration, respectively. The 50% effective concentration (EC50) was defined as the compound concentration that protected 50% of the cells from virus-induced CPE[34].

[4] = Cytotoxicity by the MTS method on uninfected cells; assay type: cell-based; conditions: mouse, uninfected RAW 264.7 cells
Description: Cytotoxicity: The cytotoxicity of the Compounds was evaluated by the MTS method, by exposing uninfected cells to the same concentrations of compounds for 3 days. The %cell viability was calculated as (ODtreated/ODCC) × 100, where ODCC is the OD of uninfected untreated cells and ODtreated are uninfected cells treated with compound. The CC50 was defined as the compound concentration that reduces the number of viable cells by 50%[34].

[5] = Crystal formation seen in the cell-based assays; assay type: physicochemical
HuNoV GI.1 replicon = assay: HuNoV GI replicon assay (HGT-NV cells, qRT-PCR); assay type: cell-based, human norovirus GI.1
Description: Given that in this system the gene encoding for the major capsid protein is replaced by a neomycin resistance gene, no new virus particles will be produced but the non-structural proteins are expressed and the replication of the genomic RNA can be studied.
as §1
Antiviral assay with the HGT-NV replicon: The inhibitory effect of Compounds on human norovirus replication was assessed by quantification of the levels of HuNoV GI replicon RNA and of the reference (housekeeping) gene β-actin mRNA [by quantitative reverse transcription polymerase chain reaction (qRT-PCR)]. To this end, HGT cells (2000 cells/well) were seeded in 96-well plates, in complete DMEM without the selection marker G418. Following an incubation period of 24 h, a serial dilution of rupintrivir was added to the cultures. After 72 h of incubation, cell monolayers were washed with phosphate-buffered saline (PBS) and collected for quantification of RNA load by qRT-PCR. Intracellular RNA was extracted from cells using the cell-to-cDNA lysis buffer (Ambion, Life Technologies). For detection of HuNoV GI replicon RNA, forward (5′-CCG GCT ACC TGC CCA TTC-3′), reverse (5′-CCAGATCATCCTGATCGACAAG-3′) primers and probe (5′-FAM-ACATCGCATCGAGCGAGCACGTAC-TAMRA-3′) for the neomycin gene were used. For detection of β-actin mRNA, forward (5′-GGCATCCACGAAACTACCTT-3′), reverse (5′-AGCACTGTGTTGGCGTACAG-3′) primers and probe (5′-HEX-ATCATGAAGTGTGACGTGGACATCCG-BHQ1–3′) were used. One-step qRT-PCR was performed in a 20 µL reaction mixture containing 10 µl 2X iTaq Universal SYBR® Green one step reaction mix (Bio-rad, California, USA), 5.17 µl RNAse free water, 0.5 µl of iScript reverse transcriptase (Bio-rad, California, USA), 4 µl of the template RNA and either 300 nM of HuNoV GI replicon primers and probe, 300 nM of β-actin primers and 200 nM of probe. Cycling conditions were: reverse transcription at 50 °C for 10 min, initial denaturation at 95 °C for 3 min, followed by 40 cycles of denaturation at 95 °C for 15 s, annealing and extension at 60 °C for 30 seconds (Roche Lightcycler®96, Roche Diagnostics, Belgium). To determine the relative expression levels of HuNoV GI replicon RNA, β-actin was used as a normalizer and ratios were calculated using the Pfaffl method. The Expression Ratio (HuNoV GI Replicon/β-actin) was calculated as: Expression Ratio = (E HuNoV)^ΔCT, HuNoV (CC – TC)/(Eβ-actin)^ΔCT, β-actin (CC – TC), where E HuNoV and Eβ-actin represent the amplification efficiency (E = 10^–1/slope) for the HuNoV GI replicon and β-actin qRT-PCR reactions, respectively. ΔCT, HuNoV (CC – TC) is the Ct of untreated control cells (CC) minus the Ct of cells treated with a compound concentration (TC) obtained with HuNoV GI replicon primers and probe. ΔCT, β-actin (CC – TC) is the Ct of untreated control cells (CC) minus the Ct of cells treated with a compound concentration (TC) obtained with β-actin primers and probe. Efficiency values (E HuNoV and Eβ-actin) were determined for each qRT-PCR reaction.

[6] = Supplementary Table S1, at least two independent experiments
[7] = Table 2, RAW 264.7, range 0.6–100 µM, at least three independent experiments
[8] = Table 2, at least three independent experiments

Row | Structure (SMILES) | inhibition of primed elongation activity (gel-shift) (HuNoV (GII.4) RdRp [1]) | EC50 (MNV; [6]) [µM] | CC50 at 3 days [4, 6] [µM] | EC50 (MNV; [7]) [µM] | CC50 at 3 days [4, 8] [µM] | further results
1 | O=C1NN(c2ccccc2)C(=O)/C1=C/c1ccc(-c2ccc(S(=O)(=O)Nc3ccccc3)cc2)o1 [Compound 1] | complete inhibition |  |  |  |  | CC50 [2]: ~64 µM and 62.8 µM
2 | O=C(Cc1cccc(-c2ccccc2)c1)Nc1ccc(S(=O)(=O)Nc2ccccc2)cc1 [Compound 7, 2-([1,1′-biphenyl]-3-yl)-N-(4-(N-phenylsulfamoyl)phenyl)acetamide] | did not demonstrate inhibition | > 12.5 | 20 ± 21 |  |  | inhibition at 100 µM (HuNoV (GII.4) RdRp [3]; 100 µM, read-out: inhibition of RdRp activity at the maximum concentration tested): 20%
3 | CCOC(=O)c1ccc(N2NC(=O)/C(=C\c3ccc(-c4ccc(S(=O)(=O)Nc5ccccc5)cc4)o3)C2=O)cc1 [Compound 34, Ethyl(E)-4-(3,5-dioxo-4-((5-(4-(N-phenylsulfamoyl)phenyl)furan-2-yl)methylene)pyrazolidin-1-yl)benzoate] |  | > 100 | > 100 |  |  | IC50 (HuNoV (GII.4) RdRp [3]; HuNoV (GII.4) RdRp activity, six concentrations 0.1–100 µM, mean ± SD): 13.5 ± 5.8 µM; crystals noted in the assay ([5]; MNV CPE reduction assay, Supplementary Table S1): crystals
4 | O=C(NC(=S)Nc1ccc(N2CCN(C(=O)c3ccco3)CC2)cc1)c1sc2ccccc2c1Cl [Compound 53, 3-Chloro-N-((4-(4-(furan-2-carbonyl)piperazin-1-yl)phenyl)carbamothioyl)benzo[b]thiophene-2-carboxamide] | significant inhibition |  |  | > 100 | 9.4 ± 2.3 | inhibition at 20 µM (HuNoV (GII.4) RdRp [3]; 20 µM, read-out: inhibition of HuNoV RdRp activity at fixed concentration): ≤ 60%
5 | O=C(NC(=S)Nc1ccc(N2CCN(S(=O)(=O)c3ccccc3)CC2)cc1)c1ccccc1 [Compound 60, N-((4-(4-(Phenylsulfonyl)piperazin-1-yl)phenyl)carbamothioyl)benzamide] |  |  |  | 66.6 ± 12.3 | > 100 | EC50 values (column head printed 'M') (HuNoV GI.1 replicon; HuNoV GI replicon in HGT-1 cells, 72 h, replicon RNA by qRT-PCR): low micromolar range; EC50 (HuNoV GI.1 replicon; Norwalk virus, HGT-1, 72 h, read-out: EC50 values (column head printed 'M'), HuNoV GI replicon in HGT-1 cells, replicon RNA by qRT-PCR): 8 µM; EC50 (HuNoV GI.1 replicon; read-out: EC50 values (column head printed 'M'), HuNoV GI replicon in HGT-1 cells, 72 h, replicon RNA by qRT-PCR): 8.5 ± 2.1 µM; concentration from which crystals form ([5]; observed with the HuNoV GI replicon results): ≥ 25 µM
